Measured values: patent US6720324B2, “Selective melanin concentrating hormone-1 (MCH1) receptor antagonists and uses thereof” (Synaptic Pharmaceutical Corporation, priority 2000, dated 2004)
Like-named read-outs stand apart in the source and are kept apart here.

Tests used:
rat 5-HT2C receptor = target: T1, rat 5-HT2C receptor (Rattus norvegicus, UniProt P08909); experiment: Radioligand binding assay, cloned receptor; conditions: Table 2; read-out: r5HT2C Ki
T1 construct: expressed in transfected cells
T1 sequence (P08909 33-460): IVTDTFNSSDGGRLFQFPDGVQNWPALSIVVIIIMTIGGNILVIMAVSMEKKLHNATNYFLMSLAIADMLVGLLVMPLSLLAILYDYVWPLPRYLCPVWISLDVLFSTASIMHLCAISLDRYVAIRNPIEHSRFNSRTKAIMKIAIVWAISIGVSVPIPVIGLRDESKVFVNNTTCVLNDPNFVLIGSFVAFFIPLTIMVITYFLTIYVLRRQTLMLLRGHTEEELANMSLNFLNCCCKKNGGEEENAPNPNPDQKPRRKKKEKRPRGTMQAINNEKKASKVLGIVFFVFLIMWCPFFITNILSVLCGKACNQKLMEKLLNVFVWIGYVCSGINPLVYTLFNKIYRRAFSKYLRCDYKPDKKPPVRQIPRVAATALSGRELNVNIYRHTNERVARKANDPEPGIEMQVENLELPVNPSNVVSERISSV
Protocol: (§1) For binding assays, pellets of transfected cells are suspended in ice-cold buffer (20 mM Tris.HCl, 5 mM EDTA, pH 7.4) and homogenized by sonication for 7 sec. The cell lysates are centrifuged at 200×g for 5 min at 4° C. The supernatants are then centrifuged at 40,000×g for 20 min at 4° C. The resulting pellets are washed once in the homogenization buffer and suspended in binding buffer (see methods for radioligand binding). Protein concentrations are determined by the method of Bradford (1976) using bovine serum albumin as the standard. Binding assays are usually performed immediately, however it is possible to prepare membranes in batch and store frozen in liquid nitrogen for future use.
(§2) The methods to obtain the cDNA of the human NPY1, NPY5, GALR1, GALR2, and GALR3 and rat 5-HT2C receptors, express said receptors in heterologous systems, and carry out assays to determine binding affinity are described in the following publications and above: human NPY1 (Larhammar et al., 1992), human NPY5 (U.S. Pat. No. 5,602,024, the disclosure of which is hereby incorporated by reference in its entirety into this application), human Gal1 (Habert-Ortoli et al., 1994), human Gal2 (Smith et al., 1997), human Gal3 (Smith et al., 1998), and rat 5-HT2C (Julius et al., 1988).

human MCH1 receptor [1] = target: T2, human MCH1 receptor (Homo sapiens, UniProt Q99705); experiment: Radioligand competition binding with [3H]Compound 10, membranes of A293 cells; conditions: Table 3, A293 cell membranes, [3H]Compound 10 as radioligand, read-out: hMCH1 * Ki
T2 sequence (Q99705 whole entry): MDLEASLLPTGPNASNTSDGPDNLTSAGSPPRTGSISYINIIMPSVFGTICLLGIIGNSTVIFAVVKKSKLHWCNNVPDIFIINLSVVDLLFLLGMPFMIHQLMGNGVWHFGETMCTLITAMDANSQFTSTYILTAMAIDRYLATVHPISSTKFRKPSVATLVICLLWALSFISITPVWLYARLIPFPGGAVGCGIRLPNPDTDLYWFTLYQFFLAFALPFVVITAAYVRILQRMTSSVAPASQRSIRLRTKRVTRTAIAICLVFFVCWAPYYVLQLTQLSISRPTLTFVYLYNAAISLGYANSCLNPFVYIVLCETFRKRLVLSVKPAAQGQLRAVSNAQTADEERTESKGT
Protocol: as §1
Radioligand binding assays for the MCH1 receptor were carried out using plasmid pEXJ.HR-TL231 (ATCC Accession No. 203197). Plasmid pEXJ.HR-TL231 comprises the regulatory elements necessary for expression of DNA in a mammalian cell operatively linked to DNA encoding the human MCH1 receptor so as to permit expression thereof. Plasmid pEXJ.HR-TL231 was deposited on Sep. 17, 1998, with the American Type Culture Collection (ATCC), 12301 Parklawn Drive, Rockville, Md. 20852, U.S.A. under the provisions of the Budapest Treaty for the International Recognition of the Deposit of Microorganisms for the Purposes of Patent Procedure and was accorded ATCC Accession No. 203197. […]

human MCH1 receptor [2] = target: T2, human MCH1 receptor; experiment: Functional assay: intracellular calcium mobilization (antagonist potency Kb); assay type: cell-based; parameters: expressed in transfected cells; host or cells: COS-7 cells, transient, DEAE-dextran, plasmid pEXJ.HR-TL231 (ATCC 203197)
Protocol: Intracellular calcium mobilization assays for the MCH1 receptor were carried out using plasmid pEXJ.HR-TL231 (ATCC Accession No. 203197). COS-7 cells were transiently transfected with DNA encoding the MCH1 receptor utilizing the DEAE-dextran method as described above. The intracellular free calcium concentration was measured by fluorescent imaging using the calcium sensitive fluorscent dye Fluo-3. COS-7 cells expressing the human MCH1 receptor were seeded onto sterile 96 well plates, washed with Hank's balanced salt solution (HBSS), containing 20 mM HEPES, 2.5 mM probenecid, and 0.1% BSA, and loaded with the same buffer containing 3.8 μM Fluo-3 for 1 hour at 37° C. After washing with HBSS to remove the fluo-3 solution, cells were equilibrated for 10 minutes.

human GALR3 = target: T3, human GALR3 (Homo sapiens, UniProt O60755); experiment: Radioligand binding assay, cloned receptor; conditions: Table 2; read-out: hGALR3 Ki
T3 construct: expressed in transfected cells
T3 sequence (O60755 1-368): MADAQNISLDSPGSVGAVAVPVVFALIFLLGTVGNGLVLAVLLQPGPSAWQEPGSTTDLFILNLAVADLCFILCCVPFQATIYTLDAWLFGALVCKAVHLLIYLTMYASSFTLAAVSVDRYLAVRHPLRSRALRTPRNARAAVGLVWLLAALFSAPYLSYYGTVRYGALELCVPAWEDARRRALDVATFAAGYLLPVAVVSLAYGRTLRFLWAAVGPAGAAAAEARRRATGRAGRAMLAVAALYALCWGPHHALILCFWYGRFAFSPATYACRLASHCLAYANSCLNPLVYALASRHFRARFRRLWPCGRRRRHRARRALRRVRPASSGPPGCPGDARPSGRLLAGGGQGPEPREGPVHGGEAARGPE
Protocol: as §1, §2

human GALR1 = target: T4, human GALR1 (Homo sapiens, UniProt P47211); experiment: Radioligand binding assay, cloned receptor; conditions: Table 2; read-out: hGALR1 Ki
T4 construct: expressed in transfected cells
T4 sequence (P47211 1-349): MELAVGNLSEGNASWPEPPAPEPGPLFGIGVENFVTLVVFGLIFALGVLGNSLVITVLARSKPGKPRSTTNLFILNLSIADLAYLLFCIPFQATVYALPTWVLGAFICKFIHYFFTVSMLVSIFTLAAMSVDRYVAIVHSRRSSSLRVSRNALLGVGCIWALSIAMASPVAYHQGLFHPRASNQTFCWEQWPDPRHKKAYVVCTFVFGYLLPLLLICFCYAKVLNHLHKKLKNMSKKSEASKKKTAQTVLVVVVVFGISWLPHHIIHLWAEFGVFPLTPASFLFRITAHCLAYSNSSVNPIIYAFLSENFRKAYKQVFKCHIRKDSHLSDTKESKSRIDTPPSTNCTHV
Protocol: as §1, §2

human NPY1 = target: T5, human NPY1 (Homo sapiens, UniProt P25929); experiment: Radioligand binding assay, cloned receptor; conditions: Table 2; read-out: hNPY1 Ki
T5 construct: expressed in transfected cells
T5 sequence (P25929 1-384): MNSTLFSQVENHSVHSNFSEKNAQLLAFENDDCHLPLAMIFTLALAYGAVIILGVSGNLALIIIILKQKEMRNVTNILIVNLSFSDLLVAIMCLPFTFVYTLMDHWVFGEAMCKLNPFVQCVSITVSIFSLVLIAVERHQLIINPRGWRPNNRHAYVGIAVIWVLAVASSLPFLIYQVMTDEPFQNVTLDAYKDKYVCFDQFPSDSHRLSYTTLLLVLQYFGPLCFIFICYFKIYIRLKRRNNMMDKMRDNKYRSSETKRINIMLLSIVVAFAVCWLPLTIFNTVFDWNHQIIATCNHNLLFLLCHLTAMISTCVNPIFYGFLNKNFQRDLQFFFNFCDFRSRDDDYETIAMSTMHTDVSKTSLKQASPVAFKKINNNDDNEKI
Protocol: as §1, §2

human NPY5 = target: T6, human NPY5 (Homo sapiens, UniProt Q15761); experiment: Radioligand binding assay, cloned receptor; conditions: Table 2; read-out: hNPY5 Ki
T6 construct: expressed in transfected cells
T6 sequence (Q15761 1-445): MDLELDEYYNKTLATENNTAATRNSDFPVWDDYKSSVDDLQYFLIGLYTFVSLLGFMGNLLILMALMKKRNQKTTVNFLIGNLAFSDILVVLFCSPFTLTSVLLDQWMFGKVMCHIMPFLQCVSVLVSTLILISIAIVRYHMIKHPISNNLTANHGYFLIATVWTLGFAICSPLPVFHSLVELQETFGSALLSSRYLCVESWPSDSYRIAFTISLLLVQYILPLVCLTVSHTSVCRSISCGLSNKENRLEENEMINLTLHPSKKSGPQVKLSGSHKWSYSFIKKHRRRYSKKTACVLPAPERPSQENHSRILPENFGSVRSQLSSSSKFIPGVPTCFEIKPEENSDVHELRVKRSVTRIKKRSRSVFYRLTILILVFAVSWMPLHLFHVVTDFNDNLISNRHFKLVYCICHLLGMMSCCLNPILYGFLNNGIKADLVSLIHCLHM
Protocol: as §1, §2

human GALR2 = target: T7, human GALR2 (Homo sapiens, UniProt O43603); experiment: Radioligand binding assay, cloned receptor; conditions: Table 2; read-out: hGALR2 Ki
T7 construct: expressed in transfected cells
T7 sequence (O43603 1-387): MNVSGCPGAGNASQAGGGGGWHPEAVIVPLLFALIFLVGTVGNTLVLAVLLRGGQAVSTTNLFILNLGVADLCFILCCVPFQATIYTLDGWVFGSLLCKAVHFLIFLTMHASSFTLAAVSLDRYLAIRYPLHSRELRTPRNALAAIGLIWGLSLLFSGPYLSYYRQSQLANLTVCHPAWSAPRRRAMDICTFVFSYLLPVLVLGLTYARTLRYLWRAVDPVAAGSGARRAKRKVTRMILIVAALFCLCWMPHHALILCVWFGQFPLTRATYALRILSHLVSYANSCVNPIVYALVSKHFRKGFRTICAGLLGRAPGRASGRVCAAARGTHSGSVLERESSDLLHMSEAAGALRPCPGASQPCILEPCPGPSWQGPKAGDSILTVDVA
Protocol: as §1, §2

[3] = Table 1, cloned human MCH1 receptor, functional assay, read-out: Kb (nM) hMCH1

| Ki (rat 5-HT2C receptor) [µM] | Ki (human MCH1 receptor [1]) [nM] | Kb (human MCH1 receptor [2]; [3]) [nM] | Ki (human GALR3) [µM] | Ki (human GALR1) [µM] | Ki (human NPY1) [µM] | Ki (human NPY5) [µM] | Ki (human GALR2) [µM] | Kb (human MCH1 receptor [2]; Table 2, antagonist potency at the human MCH1 receptor, read-out: hMCH1 Kb) [nM] | SMILES |
| --- | --- | --- | --- | --- | --- | --- | --- | --- | --- |
| 29.6 | 0.08 | 0.3 |  |  |  |  |  |  | COCC1=C(C(=O)OC)C(c2ccc(F)c(F)c2)N(C(=O)NCCCN2CCC(c3cccc(NC(C)=O)c3)CC2)C(=O)N1 (single isomer, unassigned; (+)) [Example 10, (+)-1,2,3,6-TETRAHYDRO-1-{N-[4-(3,-ACETAMIDO)-PHENYL-PIPERIDIN-1-YL]PROPYL}CARBOXAMIDO-4-METHOXYMETHYL-6-(3,4-DIFLUORO-PHENYL)-2-OXOPYRIMIDINE-5-CARBOXYLIC ACID METHYL ESTER] |
| > 50 |  | 162 | > 50 | > 50 | > 50 | > 50 | > 50 | 162 | CCCCc1ccc(-c2cc(=O)[nH]c3[nH]c(=O)[nH]c(=O)c23)s1 [Example 37, 5-(5-BUTYL-2-THIENYL)PYRIDO[2,3-d]PYRIMIDINE-2,4,7(1H,3H,8H)-TRIONE] |
